Patent publication US12377110B2, “Fospropofol methods and compositions” (Epalex Corporation, priority 2019, dated 2025)

Columns and labels:
[1] = Study No. 15-3 toxicokinetics of fospropofol and propofol in plasma; assay type: in vivo, Sprague-Dawley rats; details: for AUC(0-t): Propofol AUC0-6 hr
Method: The purpose of Study No. 15-3 (GLP) was to determine the potential toxicity of fospropofol in Sprague-Dawley rats when administered once daily by oral gavage for 14 days. […] The cause of death for the three 250 mg/kg/day group main study females found dead could not be determined, but was considered related to the pharmacodynamic effects of fospropofol, based on the time of death relative to the time of close administration, and the clinical signs recorded before death. Clinical observations during the closing period for these animals included labored breathing, prostrate, splayed hindlimbs, uncoordinated movement, decreased activity, and eyes closed.

[2] = Study A16 Part 2: PK of a single dose of 1200 mg fospropofol disodium following a high-fat meal; assay type: in vivo, human
Method: Part 2 of Study A16 was a double-blind, placebo-controlled, single-close pilot study to investigate the PK, safety, and tolerability of 1200 mg of fospropofol disodium administered to healthy adult men and women following a high-fat meal.
Subjects were healthy adults (age 18-55 years inclusive, BMI 18-29.9 kg/m^2). A separate cohort of 15 subjects was randomly assigned to receive a single oral dose of either fospropofol disodium (n=12) or matching placebo (n=3) within 30 minutes (±1 minute) after the start of a standardized high-fat meal.
Subjects were admitted to the clinical unit for an overnight fast (Day −1), administered study drug on Day 1 within 30 minutes of the start a standardized high-fat meal, and remained in the clinical unit until Day 2.
Fospropofol disodium was formulated as powder in 6 HPMC capsules, each capsule containing 200 mg of fospropofol disodium (weight adjusted for water content). Placebo was administered as 6 matching capsules.

[3] = Study A17: PK of fospropofol and propofol after single oral dose of fospropofol disodium 800 mg in subjects with migraine
Method: The study is planned to complete approximately 85 subjects. • Enrolled subjects will be asked to come to the study site for treatment when they experience a qualifying migraine headache. Dosing must occur within 4 hours after onset of the migraine symptoms. If treatment at the study site is not feasible or practicable within 4 hours after onset of migraine symptoms, subjects should use their usual medication for that headache and attempt to visit the clinic for treatment as soon as possible (within 4 hours) after onset of their next migraine headache. Dosing must occur within 60 days after enrollment (see Post-enrollment Period below). • At clinic check-in for treatment, study personnel will verify eligibility for closing regarding the criteria for a qualifying headache and adherence to post-enrollment study restrictions (see Eligibility for Dosing below). • Treatment will consist of a single oral dose of fospropofol disodium. […] Because the prevalence of migraine headaches is higher in women than in men, efforts will be made to enroll at least 50% women. • Subjects must meet the general inclusion and exclusion criteria listed below (Inclusion Criteria and Exclusion Criteria) at screening to be enrolled in the study. To be eligible for fospropofol disodium treatment after onset of a migraine headache, enrolled subjects must meet criteria specific to the presenting headache at clinic check-in (see Qualifying Headache below) and adhere to study restrictions specific to the period between enrollment and clinic check-in (see Post-enrollment Restrictions below). • Inclusion Criteria Subjects must meet all of the following criteria at screening to be enrolled in the study: • 1. Written informed consent approved by the Institutional Review Board (IRB) given before any study-related procedures are performed • 2. […] Complete abstinence alone can be used as a method of contraception. • 6. […] Able to comprehend the nature of the study, capable of giving written informed consent, and able to communicate effectively with clinic staff (as assessed by the investigator) • 8. Available to volunteer for the entire study duration and willing to adhere to all protocol requirements, including the post-enrollment restrictions (see Post-enrollment Restrictions below) • 9. Agrees not to post any information related to the study on any website or social media site (e.g., Facebook, Twitter, LinkedIn, Google+, etc.) until the entire trial has been completed • 10. Willing to forgo rescue medicine for at least 2 hours after initiation of treatment with study drug (see In-Clinic Rescue Medicine) • Exclusion Criteria Subjects to whom any of the following criteria apply at screening will be excluded: • 1. History of hemiplegic migraine (at any time in the past). • 2. History of headaches of any type occurring on ≥15 days/month during any of the 3 months prior to screening. • 3.

Compound: CC(C)c1cccc(C(C)C)c1O [propofol, 2,6-diisopropylphenol]
- Increase of propofol Cmax and AUC0-6hr with fospropofol dose ([1]; Days 1 and 14): approximately close-proportional
- Propofol AUC0-6hr following repeated administration ([1]; female rats): appeared to increase
- Propofol AUC0-6hr following repeated administration ([1]; male rats): did not appear to change
- AUC(0-t) ([1]; male, Sprague-Dawley, rat, plasma, po, 50 mg/kg, oral gavage fospropofol disodium, Male, 50 mg/kg, Day 1): 219 ng·h/mL
- AUC(0-t) ([1]; male, Sprague-Dawley, rat, plasma, po, 50 mg/kg, oral gavage fospropofol disodium, Male, 50 mg/kg, Day 14): 416 ng·h/mL
- Cmax ([1]; male, Sprague-Dawley, rat, plasma, po, 50 mg/kg, Propofol Cmax, oral gavage fospropofol disodium, Male, 50 mg/kg, Day 14): 301 ng/mL
- Tmax ([1]; male, Sprague-Dawley, rat, plasma, po, 50 mg/kg, Propofol Tmax, oral gavage fospropofol disodium, Male, 50 mg/kg, Day 14): 15 min
- Dependence of systemic exposure on sex ([1]; rats, 14 days oral gavage fospropofol disodium): greater exposure in females
- Propofol mean AUC following a high-fat meal relative to fasting ([2]; 1200 mg): approximately 40%
- Propofol mean Cmax under fed conditions relative to fasting ([2]; 1200 mg): approximately 19%
- Effect of high-fat meal on exposure ([2]; 1200 mg within 30 minutes after the start of a high-fat meal): significant reduction in exposure
- Tmax ([2]; both sexes, human, plasma, oral, 1200 mg, after a high-fat meal): 2 h
- Propofol CL/F ([2]; oral fospropofol disodium 1200 mg, Fed (Cohort 8), n = 7/12, mean): 3111 L/h
- Variability in propofol log AUC1 accounted for by time-to-treatment ([3]; 800 mg, 11 migraine subjects): ~63%
- Variability in propofol log AUC2 accounted for by time-to-treatment ([3]; 800 mg, 11 migraine subjects): ~55%
- Variability in propofol log AUC4 accounted for by time-to-treatment ([3]; 800 mg, 11 migraine subjects): ~40%
- Variability in propofol log Cmax accounted for by time-to-treatment ([3]; 800 mg, 11 migraine subjects): ~57%
- Association between time-to-treatment and log propofol Cmax, AUC1, AUC2, AUC4 ([3]; 800 mg, 11 migraine subjects (all female)): statistically significant inverse association
- Decrease of geometric mean propofol AUC1 per hour of delay in time-to-treatment ([3]; 800 mg, linear regression): 67.2 % per hour
- Decrease of geometric mean propofol AUC1 per minute of delay in time-to-treatment ([3]; 800 mg, linear regression): 1.84 % per minute
- Decrease of geometric mean propofol AUC2 per hour of delay in time-to-treatment ([3]; 800 mg, linear regression): 62.5 % per hour
- Decrease of geometric mean propofol AUC2 per minute of delay in time-to-treatment ([3]; 800 mg, linear regression): 1.62 % per minute
- Decrease of geometric mean propofol AUC4 per hour of delay in time-to-treatment ([3]; 800 mg, linear regression): 47.7 % per hour
- Decrease of geometric mean propofol AUC4 per minute of delay in time-to-treatment ([3]; 800 mg, linear regression): 1.08 % per minute
- Decrease of geometric mean propofol Cmax per hour of delay in time-to-treatment ([3]; 800 mg, linear regression): 58.5 % per hour
- Decrease of geometric mean propofol Cmax per minute of delay in time-to-treatment ([3]; 800 mg, linear regression): 1.45 % per minute
- Ratio of mean propofol Auc4, migraine subjects (all female) to female healthy volunteers ([3]; Study A17 vs. Study A16 800 mg Cohort, females only): 91%
